{"source": "patent US8519121B2", "about": "“Dextran for treating lung cancer” (Guangzhou Konzern Pharmaceutical Co., Ltd., priority 2008, dated 2013)", "format_in_all_cases": "cell-based", "key": {"[1]": {"system": "Chinese Hamster Lung Epithelial cells (CHL)", "assay": "MTT cell proliferation, Chinese Hamster Lung Epithelial cells (CHL)", "details": "48 hours, 0.1 μg/ml; for A570: n = 9, X ± SD", "procedure": "(§1) Human lung cancer cell (A549), purchased from cell center of Xiangya School of Medicine, Central South University. Human small cell lung cancer (NCl-H446) and Chinese Hamster Lung Epithelial cells (CHL), purchased from Shanghai Institute of Biochemistry and Cell Biology, Chinese Academy of Sciences. Culture condition: RPMI 1640 medium with 10% bovine serum, 37° C., 5% CO2. Take the logarithmic phase cell for the following experiment.\n(§2) Weight 3.8 g KY-1-1 into 10 ml bottle, dissolve with DMSO, and then dilute with normal saline (N.S.) to 300.0 μg/ml, 100.0 μg/ml, 30.0 μg/ml, 10.0 μg/ml, 3.0 μg/ml, 1.0 μg/ml, put into 2 ml EP tube separately, preserve in 4° C.\n(§3) Injection Cisplatin (DDP), purchased from Qilu Pharmaceutical Co., Ltd., 10 mg/bottle, batch number 6030052 DB, dissolve with normal saline, dilute to 100.0 μg/ml, 10.0 μg/ml and 1.0 μg/ml.\n(§4) Taxol (TAX), purchased from Beijing Sihuan Pharmaceutical Technology Stock Company, 30 mg/5 ml/bottle, batch number 060830, dissolve with normal saline, dilute to 100.0 μg/ml, 10.0 μg/ml and 1.0 μg/ml. • (2) Method\n(§5) Preparing suspension of human lung cancer cell (A549), human small cell lung cancer (NCl-H446) and Chinese Hamster Lung Epithelial cells (CHL), adjust to 0.5×10^4 cells/ml, seed in 96-microplate, 180 μl/hole. After cell adhesion (about 12 hours), add sample and control solution 20 μl separately into each hole, adjust the final concentration of KY-1-1 to 0.1 μg/ml, 0.3 μg/ml, 1.0 μg/ml, 3.0 μg/ml, 10.0 μg/ml and 30.0 μg/ml, and the final concentration of DDP and TAX are both 0.1 μg/ml, incubate for 48 hours, and then add MTT (5 mg/ml, MTT:PBS) 20 μl to each hole, incubate for 6 hours, remove the liquid in each hole, and then add DMSO 100 μl to each hole in order to dissolve the purple blue precipitate, then detect the absorbency (A) in 570 nm by an enzyme-labeled instrument EXL-800. Calculate the inhibition ratio (IR) with the following equation: IR(%)=(1−mean of A of dextran group/mean of A of control group)×100%.\n(§6) The selective index (SI) of cytotoxicity of the dextran is calculated with the following equation: SI═IC50(CHL cells)/IC50(A549 cells or NCl-H446 cells),\n(§7) wherein IC50 is calculated by Calcus Zn procedure.\n(§8) Repeat the above experiment twice.\n(§9) Experiment data is expressed by X±SD, and use the software SPSS 15.0 Evaluation for windows to carry out One Way ANOVA analysis, and the analysis of variance uses the LSD method and SNK method. The result is compared by Student's test, there is statistic marked difference under the condition of […]."}, "[2]": {"system": "human small cell lung cancer (NCl-H446)", "assay": "MTT cell proliferation, human small cell lung cancer (NCl-H446)", "details": "NCI-H446 cells, 48 hours, 0.1 μg/ml; for A570: n = 9, X ± SD", "procedure": "as §1, §2, §3, §4, §5, §6, §7, §8, §9"}, "[3]": {"system": "human lung cancer cell (A549)", "assay": "MTT cell proliferation, human lung cancer (A549)", "details": "A549 cells, 48 hours, 0.1 μg/ml; for A570: n = 9, X ± SD", "procedure": "as §1, §2, §3, §4, §5, §6, §7, §8, §9"}, "[4]": {"system": "human small cell lung cancer (NCl-H446)", "assay": "Anchorage-dependent cell growth capacity, plate cloning method, NCl-H446", "details": "NCI-H446, plate cloning method, 7 days, 0.1 μg/ml; for Number of Colonies: n = 9, X ± SD", "procedure": "as §1\n(§10) Preparing suspension of human lung cancer cell (A549) and human small cell lung cancer (NCl-H446), adjust to 0.3×10^3 cells/ml. In each hole, cell suspension […], and sample 0.2 ml, and control solution 0.2 ml. The final concentration of KY-1-1 is 0.1 μg/ml, 0.3 μg/ml, 1.0 μg/ml, 3.0 μg/ml, 10.0 μg/ml and 30.0 μg/ml, and the final concentration of DDP and TAX are both 0.1 μg/ml, add the same volume medium into the control group. Three holes in each group, seed in 24-microplate, incubate in CO2 for 7 days. Add 95% methanol 0.5 ml into each hole, fixed for 15 minutes, and Giemsa staining for 10-30 minutes. The number of cells in a colony is more than 50, or the diameter of the colony is more than 75 μm. Count the number of colonies in each hole, calculate the mean and record it. Calculate the colony inhibition ratio (CIR) with the following equation: CIR(%)=(1−mean of number of colony of dextran group/mean of number of colony of control group)×100%.\n(§11) The plate efficiency (PE) is calculated with the following equation: PE=mean of number of colony/number of seeded cells×100%,\nas §7, §8, §9"}, "[5]": {"system": "human lung cancer cell (A549)", "assay": "Anchorage-dependent cell growth capacity, plate cloning method, A549", "details": "7 days, 0.1 μg/ml; for Number of Colonies: n = 9, X ± SD", "procedure": "as §1, §10, §11, §7, §8, §9"}, "[6]": {"system": "human small cell lung cancer (NCl-H446)", "assay": "Anchorage-independent cell growth (cell colony forming capacity in agar), NCl-H446", "details": "NCI-H446, colony forming in agar, 7 days, 0.1 μg/ml; for Number of Colonies: n = 9, X ± SD", "procedure": "as §1\n(§12) Take 24-microplate, add 0.6% agar medium 0.5 ml in each hole. Preparing suspension of human lung cancer cell (A549) and human small cell lung cancer (NCl-H446), adjust to 1.6×10^3 cells/ml. In each hole, cell suspension 1.6 ml, and sample 0.2 ml, and control solution 0.2 ml. The final concentration of KY-1-1 is 0.1 μg/ml, 0.3 μg/ml, 1.0 μg/ml, 3.0 μg/ml, 10.0 μg/ml and 30.0 μg/ml, and the final concentration of DDP and TAX are both 0.1 μg/ml. DDP 0.2 ml, and TAX 0.2 ml. Add the same volume medium into the control group. Three holes in each group, after mixing with 0.3% agar 0.2 ml, seed in 24-microplate 0.5 ml/hole, incubate in CO2 for 7 days. The number of cells in a colony is more than 50, or the diameter of the colony is more than 75 μm. Count the number of colonies in each hole, calculate the mean and record it. Calculate the colony inhibition ratio (CIR) with the following equation: CIR(%)=(1−mean of number of colony of dextran group/mean of number of colony of control group)×100%.\nas §11, §7, §8, §9"}, "[7]": {"system": "human lung cancer cell (A549)", "assay": "Anchorage-independent cell growth (cell colony forming capacity in agar), A549", "details": "7 days, 0.1 μg/ml; for Number of Colonies: n = 9, X ± SD", "procedure": "as §1, §12, §11, §7, §8, §9"}}}
{"smiles": "N.N.[Cl][Pt][Cl]", "note": "[DDP, Cisplatin]", "values": [{"measurement": "IR (%)", "setting": "[1]", "value": 76.35, "unit": "%"}, {"measurement": "A570", "setting": "[1]", "value": "1.41 ± 0.30"}, {"measurement": "IR (%)", "setting": "[2]", "value": 77.89, "unit": "%"}, {"measurement": "A570", "setting": "[2]", "value": "0.36 ± 0.03"}, {"measurement": "IR (%)", "setting": "[3]", "value": 76.35, "unit": "%"}, {"measurement": "A570", "setting": "[3]", "value": "0.37 ± 0.03"}, {"measurement": "IR (%)", "setting": "[4]", "value": 78.44, "unit": "%"}, {"measurement": "Number of Colonies", "setting": "[4]", "value": "23.33 ± 4.18"}, {"measurement": "IR (%)", "setting": "[5]", "value": 75.82, "unit": "%"}, {"measurement": "Number of Colonies", "setting": "[5]", "value": "23.89 ± 4.43"}, {"measurement": "IR (%)", "setting": "[6]", "value": 75.98, "unit": "%"}, {"measurement": "Number of Colonies", "setting": "[6]", "value": "17.00 ± 2.74"}, {"measurement": "IR (%)", "setting": "[7]", "value": 77.05, "unit": "%"}, {"measurement": "Number of Colonies", "setting": "[7]", "value": "14.00 ± 2.00"}]}
{"smiles": "CC(=O)O[C@H]1C(=O)[C@@]2(C)[C@H]([C@H](OC(=O)c3ccccc3)[C@]3(O)C[C@H](OC(=O)[C@H](O)[C@@H](NC(=O)c4ccccc4)c4ccccc4)C(C)=C1C3(C)C)[C@]1(OC(C)=O)CO[C@@H]1C[C@@H]2O", "note": "[TAX, Taxol]", "values": [{"measurement": "IR (%)", "setting": "[1]", "value": 83.13, "unit": "%"}, {"measurement": "A570", "setting": "[1]", "value": "1.25 ± 0.14"}, {"measurement": "IR (%)", "setting": "[2]", "value": 83.54, "unit": "%"}, {"measurement": "A570", "setting": "[2]", "value": "0.27 ± 0.01"}, {"measurement": "IR (%)", "setting": "[3]", "value": 83.13, "unit": "%"}, {"measurement": "A570", "setting": "[3]", "value": "0.27 ± 0.03"}, {"measurement": "IR (%)", "setting": "[4]", "value": 82.34, "unit": "%"}, {"measurement": "Number of Colonies", "setting": "[4]", "value": "19.11 ± 2.57"}, {"measurement": "IR (%)", "setting": "[5]", "value": 82.00, "unit": "%"}, {"measurement": "Number of Colonies", "setting": "[5]", "value": "17.78 ± 2.05"}, {"measurement": "IR (%)", "setting": "[6]", "value": 84.46, "unit": "%"}, {"measurement": "Number of Colonies", "setting": "[6]", "value": "11.00 ± 1.58"}, {"measurement": "IR (%)", "setting": "[7]", "value": 83.61, "unit": "%"}, {"measurement": "Number of Colonies", "setting": "[7]", "value": "10.00 ± 1.87"}]}
